Reference: paper PMC10382584, “Macrocyclization of linear molecules by deep learning to facilitate macrocyclic drug candidates discovery” (Nature Communications, 2023)

Assays:
Assay in all cases: biochemical
Set-up in all cases: DiscoveRx KINOMEscan competition binding, percent of DMSO control signal at 100 nM
Settings in all cases: read-out: Fig. 4a / Percent Control / Compound 1; percent of DMSO control, competition binding
[1] = target: ACVR1B (Homo sapiens, UniProt P36896)
[2] = target: CSF1R (Homo sapiens, UniProt P07333)
[3] = target: MYLK2 (Homo sapiens, UniProt Q9H1R3)
[4] = target: WNK2 (Homo sapiens, UniProt Q9Y3S1)
[5] = target: NEK11 (Homo sapiens, UniProt Q8NG66)
[6] = target: NEK3 (Homo sapiens, UniProt P51956)
[7] = target: TBK1 (Homo sapiens, UniProt Q9UHD2)
[8] = target: ITK (Homo sapiens, UniProt Q08881)
[9] = target: RIOK3 (Homo sapiens, UniProt O14730)
[10] = target: FLT3(N841I) (Homo sapiens, UniProt P36888, N841I)
[11] = target: CLK4 (Homo sapiens, UniProt Q9HAZ1)
[12] = target: PRKCD (Homo sapiens, UniProt Q05655)
[13] = target: NEK1 (Homo sapiens, UniProt Q96PY6)
[14] = target: DYRK1A (Homo sapiens, UniProt Q13627)
[15] = target: T1, DRAK2 (Homo sapiens, UniProt O94768)
T1 construct: gene STK17B

[16] = target: HIPK3 (Homo sapiens, UniProt Q9H422)
[17] = target: ALK(C1156Y) (Homo sapiens, UniProt Q9UM73, C1156Y)
[18] = target: AXL (Homo sapiens, UniProt P30530)
[19] = target: T2, PIP5K2B (Homo sapiens, UniProt P78356)
T2 construct: gene PIP4K2B

[20] = target: PIKFYVE (Homo sapiens, UniProt Q9Y2I7)
[21] = target: PLK1 (Homo sapiens, UniProt P53350)
[22] = target: CLK2 (Homo sapiens, UniProt P49760)
[23] = target: RET (Homo sapiens, UniProt P07949)
[24] = target: PRKCQ (Homo sapiens, UniProt Q04759)
[25] = target: BRSK1 (Homo sapiens, UniProt Q8TDC3)
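Note: KINOMEscan kinase panel binding assay, signal normalized between DMSO as 100% and a positive control compound as 0%.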

Sequence of BRSK1 (Q8TDC3 whole entry): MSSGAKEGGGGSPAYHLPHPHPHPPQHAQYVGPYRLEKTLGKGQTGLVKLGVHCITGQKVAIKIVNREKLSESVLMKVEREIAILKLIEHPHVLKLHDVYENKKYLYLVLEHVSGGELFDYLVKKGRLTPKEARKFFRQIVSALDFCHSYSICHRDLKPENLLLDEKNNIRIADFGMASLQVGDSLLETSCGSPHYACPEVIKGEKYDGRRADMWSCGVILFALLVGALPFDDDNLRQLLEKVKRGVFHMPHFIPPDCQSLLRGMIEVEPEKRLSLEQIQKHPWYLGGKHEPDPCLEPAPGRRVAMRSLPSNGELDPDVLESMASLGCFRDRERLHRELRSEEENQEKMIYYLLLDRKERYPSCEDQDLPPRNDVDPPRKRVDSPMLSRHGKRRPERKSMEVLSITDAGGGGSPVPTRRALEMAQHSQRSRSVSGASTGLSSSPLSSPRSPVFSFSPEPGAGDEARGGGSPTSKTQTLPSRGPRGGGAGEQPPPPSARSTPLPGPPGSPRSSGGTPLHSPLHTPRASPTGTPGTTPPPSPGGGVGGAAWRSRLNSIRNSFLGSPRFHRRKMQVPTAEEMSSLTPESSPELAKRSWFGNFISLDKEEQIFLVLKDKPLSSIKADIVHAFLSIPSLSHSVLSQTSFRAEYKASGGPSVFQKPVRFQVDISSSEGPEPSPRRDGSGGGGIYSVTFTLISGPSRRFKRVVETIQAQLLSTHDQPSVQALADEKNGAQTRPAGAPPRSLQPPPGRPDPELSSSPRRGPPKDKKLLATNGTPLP
Sequence of WNK2 (Q9Y3S1 whole entry): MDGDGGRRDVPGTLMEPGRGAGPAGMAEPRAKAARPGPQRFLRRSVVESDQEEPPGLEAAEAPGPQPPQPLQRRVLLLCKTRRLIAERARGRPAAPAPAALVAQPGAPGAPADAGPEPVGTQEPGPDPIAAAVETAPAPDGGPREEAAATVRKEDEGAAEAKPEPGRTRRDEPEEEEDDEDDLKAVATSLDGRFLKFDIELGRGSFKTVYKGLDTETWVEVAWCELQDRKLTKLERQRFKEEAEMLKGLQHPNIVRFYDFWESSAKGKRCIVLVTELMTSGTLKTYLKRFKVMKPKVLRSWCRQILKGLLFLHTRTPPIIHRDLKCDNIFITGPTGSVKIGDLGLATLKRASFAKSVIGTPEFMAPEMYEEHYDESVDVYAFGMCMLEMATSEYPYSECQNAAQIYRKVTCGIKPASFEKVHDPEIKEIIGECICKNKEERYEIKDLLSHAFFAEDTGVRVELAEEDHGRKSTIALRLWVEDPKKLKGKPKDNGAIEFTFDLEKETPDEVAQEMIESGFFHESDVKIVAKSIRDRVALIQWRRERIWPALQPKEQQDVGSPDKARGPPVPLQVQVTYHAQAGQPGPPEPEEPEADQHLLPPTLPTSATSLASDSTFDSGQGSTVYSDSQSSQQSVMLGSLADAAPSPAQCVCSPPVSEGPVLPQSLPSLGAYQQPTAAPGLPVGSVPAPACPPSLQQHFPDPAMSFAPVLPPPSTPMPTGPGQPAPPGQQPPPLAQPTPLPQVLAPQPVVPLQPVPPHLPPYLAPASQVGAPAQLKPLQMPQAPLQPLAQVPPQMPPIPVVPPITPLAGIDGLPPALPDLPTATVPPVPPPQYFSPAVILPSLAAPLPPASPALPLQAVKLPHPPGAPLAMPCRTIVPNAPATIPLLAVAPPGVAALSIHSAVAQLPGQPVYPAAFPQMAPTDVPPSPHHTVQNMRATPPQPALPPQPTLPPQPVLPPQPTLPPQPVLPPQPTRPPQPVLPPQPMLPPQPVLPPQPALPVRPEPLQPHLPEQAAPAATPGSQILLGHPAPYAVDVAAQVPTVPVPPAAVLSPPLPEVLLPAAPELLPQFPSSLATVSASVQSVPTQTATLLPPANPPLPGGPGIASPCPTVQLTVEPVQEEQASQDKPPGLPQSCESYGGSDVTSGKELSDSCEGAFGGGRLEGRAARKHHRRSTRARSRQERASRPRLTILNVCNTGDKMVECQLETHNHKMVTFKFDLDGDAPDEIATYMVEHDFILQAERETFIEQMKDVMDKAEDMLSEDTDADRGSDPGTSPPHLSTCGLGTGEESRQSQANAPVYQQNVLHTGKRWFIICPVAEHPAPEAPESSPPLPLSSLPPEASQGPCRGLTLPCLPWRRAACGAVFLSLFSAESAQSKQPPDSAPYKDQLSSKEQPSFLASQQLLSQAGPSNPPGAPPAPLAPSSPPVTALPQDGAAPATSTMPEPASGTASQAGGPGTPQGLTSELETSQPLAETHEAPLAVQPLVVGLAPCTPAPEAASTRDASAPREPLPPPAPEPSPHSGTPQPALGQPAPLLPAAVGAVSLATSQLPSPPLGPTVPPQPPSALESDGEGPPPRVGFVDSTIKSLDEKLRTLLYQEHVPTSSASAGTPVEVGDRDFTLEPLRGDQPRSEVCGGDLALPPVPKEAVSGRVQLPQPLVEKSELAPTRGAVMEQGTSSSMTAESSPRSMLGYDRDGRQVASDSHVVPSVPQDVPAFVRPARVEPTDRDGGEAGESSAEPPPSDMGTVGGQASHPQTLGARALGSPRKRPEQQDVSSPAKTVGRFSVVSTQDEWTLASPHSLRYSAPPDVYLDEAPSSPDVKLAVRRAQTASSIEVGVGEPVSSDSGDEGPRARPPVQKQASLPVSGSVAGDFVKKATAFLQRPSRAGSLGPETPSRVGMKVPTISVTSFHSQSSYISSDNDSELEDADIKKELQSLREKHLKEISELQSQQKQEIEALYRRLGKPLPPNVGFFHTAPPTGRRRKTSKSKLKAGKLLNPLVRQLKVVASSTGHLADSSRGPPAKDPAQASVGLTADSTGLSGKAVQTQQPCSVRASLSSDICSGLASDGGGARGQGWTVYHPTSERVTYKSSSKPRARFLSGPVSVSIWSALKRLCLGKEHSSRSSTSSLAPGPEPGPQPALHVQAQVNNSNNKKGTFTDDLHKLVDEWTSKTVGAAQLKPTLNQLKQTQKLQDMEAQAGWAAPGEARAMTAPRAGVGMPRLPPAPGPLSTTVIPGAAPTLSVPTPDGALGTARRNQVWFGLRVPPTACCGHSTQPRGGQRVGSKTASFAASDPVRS
Sequence of CSF1R (P07333 whole entry): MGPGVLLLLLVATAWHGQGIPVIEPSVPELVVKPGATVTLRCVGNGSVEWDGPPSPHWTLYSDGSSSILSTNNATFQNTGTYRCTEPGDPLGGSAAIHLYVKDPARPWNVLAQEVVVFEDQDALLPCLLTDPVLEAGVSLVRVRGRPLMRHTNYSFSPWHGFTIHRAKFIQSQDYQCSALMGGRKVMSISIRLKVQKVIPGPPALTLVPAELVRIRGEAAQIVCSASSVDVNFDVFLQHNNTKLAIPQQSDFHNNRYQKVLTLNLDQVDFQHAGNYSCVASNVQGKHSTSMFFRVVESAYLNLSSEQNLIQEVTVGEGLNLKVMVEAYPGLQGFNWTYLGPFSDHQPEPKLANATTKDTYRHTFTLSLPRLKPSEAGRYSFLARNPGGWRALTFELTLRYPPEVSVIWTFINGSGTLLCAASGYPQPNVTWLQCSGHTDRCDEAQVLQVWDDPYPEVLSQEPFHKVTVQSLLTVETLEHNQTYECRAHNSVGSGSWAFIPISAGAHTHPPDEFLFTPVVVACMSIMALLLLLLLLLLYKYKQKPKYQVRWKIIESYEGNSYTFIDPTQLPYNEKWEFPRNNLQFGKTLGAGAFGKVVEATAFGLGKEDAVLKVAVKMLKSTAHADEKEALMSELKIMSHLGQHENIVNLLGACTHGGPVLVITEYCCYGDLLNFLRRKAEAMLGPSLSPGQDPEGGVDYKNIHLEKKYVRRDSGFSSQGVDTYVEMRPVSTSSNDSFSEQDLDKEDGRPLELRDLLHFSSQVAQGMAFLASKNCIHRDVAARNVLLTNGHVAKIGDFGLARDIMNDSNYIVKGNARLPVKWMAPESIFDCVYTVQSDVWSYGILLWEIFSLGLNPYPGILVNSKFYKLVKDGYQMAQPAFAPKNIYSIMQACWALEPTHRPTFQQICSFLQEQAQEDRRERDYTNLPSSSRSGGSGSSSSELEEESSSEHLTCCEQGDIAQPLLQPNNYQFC
Sequence of PRKCD (Q05655 whole entry): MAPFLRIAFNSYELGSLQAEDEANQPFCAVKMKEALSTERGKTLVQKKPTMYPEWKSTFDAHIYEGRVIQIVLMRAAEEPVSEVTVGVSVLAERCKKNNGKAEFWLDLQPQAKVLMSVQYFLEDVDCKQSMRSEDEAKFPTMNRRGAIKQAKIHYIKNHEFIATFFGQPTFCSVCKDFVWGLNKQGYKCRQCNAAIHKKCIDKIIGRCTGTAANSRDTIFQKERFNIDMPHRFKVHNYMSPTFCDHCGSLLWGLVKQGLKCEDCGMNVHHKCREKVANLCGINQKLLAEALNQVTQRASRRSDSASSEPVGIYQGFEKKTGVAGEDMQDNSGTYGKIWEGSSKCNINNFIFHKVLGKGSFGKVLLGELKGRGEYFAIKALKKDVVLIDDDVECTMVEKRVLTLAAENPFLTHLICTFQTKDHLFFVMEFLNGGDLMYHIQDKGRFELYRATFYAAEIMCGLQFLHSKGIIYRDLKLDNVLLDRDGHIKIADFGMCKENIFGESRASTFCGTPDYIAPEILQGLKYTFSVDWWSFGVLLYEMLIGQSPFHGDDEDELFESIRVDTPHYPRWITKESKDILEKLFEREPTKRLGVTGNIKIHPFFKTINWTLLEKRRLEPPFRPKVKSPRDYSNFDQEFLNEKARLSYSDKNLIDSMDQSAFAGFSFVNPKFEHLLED
T1 sequence (O94768 whole entry): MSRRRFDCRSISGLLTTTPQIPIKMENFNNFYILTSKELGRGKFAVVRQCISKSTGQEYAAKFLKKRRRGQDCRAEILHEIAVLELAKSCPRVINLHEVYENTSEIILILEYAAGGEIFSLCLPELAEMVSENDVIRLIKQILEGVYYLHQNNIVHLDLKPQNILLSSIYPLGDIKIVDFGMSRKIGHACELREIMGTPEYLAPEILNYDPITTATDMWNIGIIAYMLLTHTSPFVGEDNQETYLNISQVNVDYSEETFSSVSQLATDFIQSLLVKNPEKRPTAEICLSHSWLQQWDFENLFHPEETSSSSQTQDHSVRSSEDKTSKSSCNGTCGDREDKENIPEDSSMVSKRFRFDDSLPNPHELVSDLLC

Compound: Cc1cnc2nc1Nc1cccc(c1)COCc1cc(ccc1OCCN1CCCC1)N2 [Compound 1]
- remaining binding at 0.1 µM [1]: 100%
- remaining binding at 0.1 µM [2]: 62%
- remaining binding at 0.1 µM [3]: 100%
- remaining binding at 0.1 µM [4]: 100%
- remaining binding at 0.1 µM [5]: 69%
- remaining binding at 0.1 µM [6]: 90%
- remaining binding at 0.1 µM [7]: 76%
- remaining binding at 0.1 µM [8]: 93%
- remaining binding at 0.1 µM [9]: 79%
- remaining binding at 0.1 µM [10]: 3.5%
- remaining binding at 0.1 µM [11]: 94%
- remaining binding at 0.1 µM [12]: 100%
- remaining binding at 0.1 µM [13]: 100%
- remaining binding at 0.1 µM [14]: 88%
- remaining binding at 0.1 µM [15]: 100%
- remaining binding at 0.1 µM [16]: 87%
- remaining binding at 0.1 µM [17]: 40%
- remaining binding at 0.1 µM [18]: 90%
- remaining binding at 0.1 µM [19]: 96%
- remaining binding at 0.1 µM [20]: 100%
- remaining binding at 0.1 µM [21]: 94%
- remaining binding at 0.1 µM [22]: 81%
- remaining binding at 0.1 µM [23]: 96%
- remaining binding at 0.1 µM [24]: 100%
- remaining binding at 0.1 µM [25]: 93%
